# Molecular target: T1, Zcchc11 enzyme (Homo sapiens, UniProt Q5TAX3)
# T1 construct: made in house; host or cells: HEK293 cells (Zcchc11); E. coli Rosetta II (LIN28A)
# T1 sequence (Q5TAX3 212-1420): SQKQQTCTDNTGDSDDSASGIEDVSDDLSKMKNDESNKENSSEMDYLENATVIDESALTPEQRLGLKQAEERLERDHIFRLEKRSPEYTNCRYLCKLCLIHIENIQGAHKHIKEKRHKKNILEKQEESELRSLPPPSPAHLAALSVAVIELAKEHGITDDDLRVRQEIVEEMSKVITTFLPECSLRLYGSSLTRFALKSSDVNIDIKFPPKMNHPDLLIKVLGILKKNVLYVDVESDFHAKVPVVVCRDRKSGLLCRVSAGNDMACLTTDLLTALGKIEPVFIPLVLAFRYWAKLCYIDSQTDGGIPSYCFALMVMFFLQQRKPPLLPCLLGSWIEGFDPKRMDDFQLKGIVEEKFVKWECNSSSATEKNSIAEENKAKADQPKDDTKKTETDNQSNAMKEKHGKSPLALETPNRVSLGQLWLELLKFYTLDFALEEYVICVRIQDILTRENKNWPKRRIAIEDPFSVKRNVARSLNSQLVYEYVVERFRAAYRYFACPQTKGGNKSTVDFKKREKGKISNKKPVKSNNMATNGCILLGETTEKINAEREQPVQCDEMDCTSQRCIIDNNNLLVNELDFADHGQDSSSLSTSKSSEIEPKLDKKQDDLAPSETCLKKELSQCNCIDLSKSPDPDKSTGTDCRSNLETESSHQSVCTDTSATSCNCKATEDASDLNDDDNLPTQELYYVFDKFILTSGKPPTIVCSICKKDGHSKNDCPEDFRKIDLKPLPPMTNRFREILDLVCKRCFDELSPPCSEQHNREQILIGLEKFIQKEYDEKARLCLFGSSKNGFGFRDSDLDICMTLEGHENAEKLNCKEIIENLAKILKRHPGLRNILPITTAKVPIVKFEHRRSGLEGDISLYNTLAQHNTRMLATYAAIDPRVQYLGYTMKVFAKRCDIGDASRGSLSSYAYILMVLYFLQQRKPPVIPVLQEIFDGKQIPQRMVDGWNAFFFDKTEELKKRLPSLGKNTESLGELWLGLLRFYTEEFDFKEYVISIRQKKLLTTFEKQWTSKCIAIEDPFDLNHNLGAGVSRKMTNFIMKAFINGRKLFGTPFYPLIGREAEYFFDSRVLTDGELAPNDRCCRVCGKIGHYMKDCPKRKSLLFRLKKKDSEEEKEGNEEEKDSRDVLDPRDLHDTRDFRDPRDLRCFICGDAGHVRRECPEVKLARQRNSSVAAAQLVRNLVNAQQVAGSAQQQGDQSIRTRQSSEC
# Assay: TUTase assay (Zcchc11 assay, Lin28a-dependent polyuridylation of pre-let-7)
# Type: biochemical
# Settings: Lin28a-dependent Zcchc11 (Z11) TUTase assay; read-out: Potency Lin28a-dep Z11 IC50
# Outline: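 Human Zcchc11 residues 212-1420 (HEK293-expressed, MBP tag cleaved, C-terminal FLAG) at 0.2 nM, with 10 nM full-length human LIN28A and 2 nM 5′-fluorescein pre-let-7, preincubated with compound 30 min at room temperature. Reaction started with 5 uM UTP plus 4 nM 3′-rhodamine A20 quench probe; fluorescein loss read kinetically, IC50 from initial rates.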
row,SMILES,IC50
1,"CN(C)C1CN(c2ncc(-n3cc(C(=O)O)c(=O)c4cc(Cl)c(N5CCC[C@@]5(C)COc5ncccc5Cl)nc43)cn2)C1 [Example 623, (S)-6-chloro-7-(2-(((3-chloropyridin-2-yl)oxy)methyl)-2-methylpyrrolidin-1-yl)-1-(2-(3-(dimethylamino)azetidin-1-yl)pyrimidin-5-yl)-4-oxo-1,4-dihydro-1,8-naphthyridine-3-carboxylic acid]",≤ 1 µM
2,"CN(C)C1CN(c2ccc(-n3cc(C(=O)O)c(=O)c4cc(Cl)c(N5CCC[C@@H]5COc5nc(OC6CC6)ccc5Cl)cc43)cn2)C1 [Example 624, (R)-6-chloro-7-(2-(((3-chloro-6-cyclopropoxy-pyridin-2-yl)oxy)methyl)pyrrolidin-1-yl)-1-(6-(3-(dimethylamino)azetidin-1-yl)pyridin-3-yl)-4-oxo-1,4-dihydroquinoline-3-carboxylic acid]",≤ 1 µM
3,"COc1ccc(Cl)c(OC[C@H]2CC(C)CN2c2cc3c(cc2Cl)c(=O)c(C(=O)O)cn3-c2ccc(N3CC(N(C)C)C3)nc2)n1 (stereo partly drawn) [Example 625, 6-chloro-7-((2R)-2-(((3-chloro-6-methoxypyridin-2-yl)oxy)methyl)-4-methylpyrrolidin-1-yl)-1-(6-(3-(dimethylamino)azetidin-1-yl)pyridin-3-yl)-4-oxo-1,4-dihydroquinoline-3-carboxylic acid]",≤ 1 µM
4,"CN1CC(c2ccc(-n3cc(C(=O)O)c(=O)c4cc(Cl)c(N5CCC[C@@H]5COc5ncccc5Cl)cc43)cn2)C1 [Example 626, (R)-6-chloro-7-(2-(((3-chloropyridin-2-yl)oxy)methyl)pyrrolidin-1-yl)-1-(6-(1-methyl-azetidin-3-yl)pyridin-3-yl)-4-oxo-1,4-dihydroquinoline-3-carboxylic acid]",≤ 1 µM
5,"CN(C)C1CN(c2ccc(-n3cc(C(=O)O)c(=O)c4cc(Cl)c(N5CCC[C@]5(C)COc5ncccc5Cl)cc43)cn2)C1 [Example 627, (R)-6-chloro-7-(2-(((3-chloropyridin-2-yl)oxy)methyl)-2-methylpyrrolidin-1-yl)-1-(6-(3-(dimethylamino)azetidin-1-yl)pyridin-3-yl)-4-oxo-1,4-dihydroquinoline-3-carboxylic acid]",≤ 1 µM
6,"CN(C)C1CN(c2ccc(-n3cc(C(=O)O)c(=O)c4cc(Cl)c(N5C6CC6C[C@@H]5COc5ncccc5Cl)cc43)cn2)C1 (stereo partly drawn) [Example 628, 6-chloro-7-((3R)-3-(((3-chloropyridin-2-yl)oxy)methyl)-2-azabicyclo[3.1.0]hexan-2-yl)-1-(6-(3-(dimethylamino)azetidin-1-yl)pyridin-3-yl)-4-oxo-1,4-dihydroquinoline-3-carboxylic acid]",≤ 1 µM
7,"COc1cnc(OC[C@H]2CCCN2c2cc3c(cc2Cl)c(=O)c(C(=O)O)cn3-c2ccc(N3CC(N(C)C)C3)nc2)c(Cl)c1 [Example 629, (R)-6-chloro-7-(2-(((3-chloro-5-methoxypyridin-2-yl)oxy)methyl)pyrrolidin-1-yl)-1-(6-(3-(dimethylamino)aztidin-1-yl)pyridin-3-yl)-4-oxo-1,4-dihydroquinoline-3-carboxylic acid]",≤ 1 µM
8,"CN(C)C1CN(c2ccc(-n3cc(C(=O)O)c(=O)c4cc(F)c(N5CCC[C@@]5(C)COc5ncccc5Cl)nc43)cn2)C1 [Example 630, (S)-7-(2-(((3-chloropyridin-2-yl)oxy)methyl)-2-methylpyrrolidin-1-yl)-1-(6-(3-(dimethylamino)azetidin-1-yl)pyridin-3-yl)-6-fluoro-4-oxo-1,4-dihydro-1,8-naphthyridine-3-carboxylic acid]",≤ 1 µM
9,"[N-]=[N+]=Nc1ccc(-n2cc(C(=O)O)c(=O)c3cc(Cl)c(N4CCC[C@@H]4COc4ncccc4Cl)cc32)cn1 [Example 631, (R)-1-(6-azidopyridin-3-yl)-6-chloro-7-(2-(((3-chloropyridin-2-yl)oxy)methyl)pyrrolidin-1-yl)-4-oxo-1,4-dihydroquinoline-3-carboxylic acid]",≤ 1 µM
10,"Cc1cc2c(=O)c(C(=O)O)cn(-c3ccc(N4CC(N(C)C)C4)nc3)c2nc1N1CCC[C@@H]1COc1ncccc1Cl [Example 633, (R)-7-(2-(((3-chloropyridin-2-yl)oxy)methyl)pyrrolidin-1-yl)-1-(6-(3-(dimethylamino)azetidin-1-yl)pyridin-3-yl)-6-methyl-4-oxo-1,4-dihydro-1,8-naphthyridine-3-carboxylic acid]",≤ 1 µM
11,"CN(C)C1CN(c2ccc(-n3cc(C(=O)O)c(=O)c4cc(F)c(N5CCC[C@]5(C)COc5ncccc5Cl)c(F)c43)cn2)C1 [Example 634, (R)-7-(2-(((3-chloropyridin-2-yl)oxy)methyl)-2-methylpyrrolidin-1-yl)-1-(6-(3-(dimethylamino)azetidin-1-yl)pyridin-3-yl)-6,8-difluoro-4-oxo-1,4-dihydroquinoline-3-carboxylic acid]",≤ 1 µM
12,"CN(C)C1CN(c2ccc(-n3cc(C(=O)O)c(=O)c4cc(Cl)c(N5CCC6CC65COc5ncccc5Cl)cc43)cn2)C1 (stereo not drawn) [Example 635, 6-chloro-7-(1-(((3-chloropyridin-2-yl)oxy)methyl)-2-azabicyclo[3.1.0]hexan-2-yl)-1-(6-(3-(dimethylamino)azetidin-1-yl)pyridin-3-yl)-4-oxo-1,4-dihydroquinoline-3-carboxylic acid]",≤ 1 µM
13,"COc1ccc(C2C[C@H](COc3nc(OC)ccc3Cl)N(c3cc4c(cc3Cl)c(=O)c(C(=O)O)cn4-c3ccc(N4CC(N(C)C)C4)nc3)C2)cn1 (stereo partly drawn) [Example 636, 6-chloro-7-((2R)-2-(((3-chloro-6-methoxypyridin-2-yl)oxy)methyl)-4-(6-methoxypyridin-3-yl)pyrrolidin-1-yl)-1-(6-(3-(dimethylamino)azetidin-1-yl)pyridin-3-yl)-4-oxo-1,4-dihydroquinoline-3-carboxylic acid]",≤ 1 µM
14,"COc1ccc(Cl)c(OC[C@H]2C[C@H](NC(C)=O)CN2c2cc3c(cc2Cl)c(=O)c(C(=O)O)cn3-c2ccc(N3CC(N(C)C)C3)nc2)n1 [Example 637, 6-chloro-7-[(2R)-2-{[(3-chloro-6-methoxypyridin-2-yl)oxy]methyl}-4-acetamido-pyrrolidin-1-yl]-1-{6-[3-(dimethylamino)azetidin-1-yl]pyridin-3-yl}-4-oxo-1,4-dihydroquinoline-3-carboxylic acid]",≤ 1 µM
15,"O=C(O)c1cn(-c2cnccn2)c2cc(N3CC(F)(F)C[C@@H]3COc3ncccc3Cl)c(Cl)cc2c1=O [Example 638, (R)-6-chloro-7-(2-(((3-chloropyridin-2-yl)oxy)methyl)-4,4-difluoropyrrolidin-1-yl)-4-oxo-1-(pyrazin-2-yl)-1,4-dihydroquinoline-3-carboxylic acid]",≤ 1 µM
16,"CN(C)C1CN(c2ccc(-n3cc(C(=O)O)c(=O)c4cc(Cl)c(N5CCC[C@@]5(C)COc5ncccc5Cl)cc43)cn2)C1 [Example 639, (S)-6-chloro-7-(2-(((3-chloropyridin-2-yl)oxy)methyl)-2-methylpyrrolidin-1-yl)-1-(6-(3-(dimethylamino)azetidin-1-yl)pyridin-3-yl)-4-oxo-1,4-dihydroquinoline-3-carboxylic acid]",≤ 1 µM
17,"COc1ccc(Cl)c(OC[C@H]2C[C@@H](O)CN2c2cc3c(cc2Cl)c(=O)c(C(=O)O)cn3-c2ccc(N3CC(N(C)C)C3)nc2)n1 [Example 641, 6-chloro-7-((2R,4R)-2-(((3-chloro-6-methoxypyridin-2-yl)oxy)methyl)-4-hydroxypyrrolidin-1-yl)-1-(6-(3-(dimethylamino)azetidin-1-yl)pyridin-3-yl)-4-oxo-1,4-dihydroquinoline-3-carboxylic acid]",≤ 1 µM
18,"COc1ccc(Cl)c(OC[C@H]2CC(N3CCCC3=O)CN2c2cc3c(cc2Cl)c(=O)c(C(=O)O)cn3-c2ccc(N3CC(N(C)C)C3)nc2)n1 (stereo partly drawn) [Example 642, 6-chloro-7-((5′R)-5′-(((3-chloro-6-methoxypyridin-2-yl)oxy)methyl)-2-oxo-[1,3′-bipyrrolidin]-1-yl)-1-(6-(3-(dimethylamino)azetidin-1-yl)pyridin-3-yl)-4-oxo-1,4-dihydroquinoline-3-carboxylic acid]",≤ 1 µM

# Reference: patent publication US12662491B2 (Redona Therapeutics, Inc., priority 2020, dated 2026)
